# Measured values as given in PubChem BioAssay AID248 (DTP/NCI, 2004).
# Values joined by “and” are separate entries in the source; they are usually repeats but may differ in a detail not shown here. Identical values can stand only once. Toxic doses and inconclusive results are not listed.
# System: L1210 leukemia ip in BDF1 mice, survival T/C
# Assay: NCI In Vivo Anticancer Drug Screen. Data for tumor model L1210 Leukemia (intraperitoneal) in B6D2F1 (BDF1) mice
# Details: endpoint: mean survival time, higher = longer survival
# How it was run: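 In this screen, tumor-bearing mice given compound are compared to those given vehicle, and their survival values are reported as a treated-to-control quotient.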
# [1] = dose: 100.0 mg/kg/injection, schedule: Q01DX001 (ip), vehicle: carboxymethylcellulose (CMC)
# [2] = dose: 50.0 mg/kg/injection, schedule: Q04DX002 (ip), vehicle: Klucel (hydroxypropylcellulose) (HPC)
# [3] = dose: 100.0 mg/kg/injection, schedule: Q04DX002 (ip), vehicle: Klucel (hydroxypropylcellulose) (HPC)
# [4] = dose: 200.0 mg/kg/injection, schedule: Q04DX002 (ip), vehicle: Klucel (hydroxypropylcellulose) (HPC)
# [5] = dose: 400.0 mg/kg/injection, schedule: Q04DX002 (ip), vehicle: Klucel (hydroxypropylcellulose) (HPC)
# [6] = dose: 100.0 mg/kg/injection, schedule: Q04DX002 (ip), vehicle: saline
# [7] = dose: 200.0 mg/kg/injection, schedule: Q04DX002 (ip), vehicle: saline
# [8] = dose: 400.0 mg/kg/injection, schedule: Q04DX002 (ip), vehicle: saline
# [9] = dose: 100.0 mg/kg/injection, schedule: Q04DX003 (ip), vehicle: Klucel (hydroxypropylcellulose) (HPC)
# [10] = dose: 200.0 mg/kg/injection, schedule: Q04DX003 (ip), vehicle: Klucel (hydroxypropylcellulose) (HPC)
# [11] = dose: 100.0 mg/kg/injection, schedule: Q01DX001 (ip), vehicle: saline
# [12] = dose: 200.0 mg/kg/injection, schedule: Q01DX001 (ip), vehicle: saline
# [13] = dose: 400.0 mg/kg/injection, schedule: Q01DX001 (ip), vehicle: saline
# [14] = dose: 100.0 mg/kg/injection, schedule: Q01DX009 (ip), vehicle: Klucel (hydroxypropylcellulose) (HPC)
# [15] = dose: 50.0 mg/kg/injection, schedule: Q01DX009 (ip), vehicle: Klucel (hydroxypropylcellulose) (HPC)
# [16] = dose: 100.0 mg/kg/injection, schedule: Q04DX003 (ip), vehicle: saline with Tween-80
# [17] = dose: 200.0 mg/kg/injection, schedule: Q04DX003 (ip), vehicle: saline with Tween-80
# [18] = dose: 400.0 mg/kg/injection, schedule: Q04DX003 (ip), vehicle: saline with Tween-80
smiles,measurement,setting,value
CC(=O)Nc1cc2c3ccccc3ccc2c2ccccc12,T/C,[1],87 % of control
CC(=O)NC(C)c1ccccc1 (stereo not given),T/C,[2],108 % of control
same,T/C,"dose: 75.0 mg/kg/injection, schedule: Q01DX009 (ip), vehicle: Klucel (hydroxypropylcellulose) (HPC)",96 % of control
same,T/C,[3],108 % of control
same,T/C,"dose: 150.0 mg/kg/injection, schedule: Q01DX009 (ip), vehicle: Klucel (hydroxypropylcellulose) (HPC)",89 % of control
same,T/C,[4],108 % of control
same,T/C,"dose: 300.0 mg/kg/injection, schedule: Q01DX009 (ip), vehicle: Klucel (hydroxypropylcellulose) (HPC)",100 % of control
same,T/C,[5],111 % of control
Nc1c(Br)cc2c(c1Br)Cc1cc(Br)ccc1-2,T/C,"dose: 200.0 mg/kg/injection, schedule: Q01DX Z (ip), vehicle: saline",109 % of control
same,T/C,"dose: 400.0 mg/kg/injection, schedule: Q01DX Z (ip), vehicle: saline",107 % of control
same,T/C,"dose: 800.0 mg/kg/injection, schedule: Q01DX Z (ip), vehicle: saline",112 % of control
same,T/C,"dose: 1600.0 mg/kg/injection, schedule: Q01DX Z (ip), vehicle: saline",112 % of control
NNC(=O)CNc1ccc(F)c(F)c1,T/C,[3],104 % of control
same,T/C,[4],108 % of control
CCCCCC(=O)N1CC(C)OC(C)C1 (stereo not given),T/C,[3],94 % of control
same,T/C,[4],97 % of control
same,T/C,[5],87 % of control
NC(=S)c1cn(C2OC(CO)C(O)C2O)c2ncnc(N)c12 (stereo not given),T/C,"dose: 0.5 mg/kg/injection, schedule: Q03HX016 (ip), vehicle: other",118 % of control
same,T/C,"dose: 0.5 mg/kg/injection, schedule: Q03HX024 (ip), vehicle: saline",156 % of control
same,T/C,"dose: 1.0 mg/kg/injection, schedule: Q03HX016 (ip), vehicle: other",118 % of control
same,T/C,"dose: 1.0 mg/kg/injection, schedule: Q03HX024 (ip), vehicle: saline",172 % of control
same,T/C,"dose: 2.0 mg/kg/injection, schedule: Q03HX016 (ip), vehicle: other",176 % of control
same,T/C,"dose: 2.0 mg/kg/injection, schedule: Q03HX024 (ip), vehicle: saline",124 % of control
same,T/C,"dose: 3.75 mg/kg/injection, schedule: Q01DX009 (ip), vehicle: carboxymethylcellulose (CMC)",110 % of control
same,T/C,"dose: 4.0 mg/kg/injection, schedule: Q08DX002 (ip), vehicle: other",123 % of control
same,T/C,"dose: 5.0 mg/kg/injection, schedule: Q01DX001 (ip), vehicle: saline",112 % of control
same,T/C,"dose: 7.5 mg/kg/injection, schedule: Q01DX001 (ip), vehicle: carboxymethylcellulose (CMC)",117 % of control
same,T/C,"dose: 8.0 mg/kg/injection, schedule: Q04DX003 (ip), vehicle: saline",151 % of control
same,T/C,"dose: 8.0 mg/kg/injection, schedule: Q08DX002 (ip), vehicle: other",123 % of control
same,T/C,"dose: 10.0 mg/kg/injection, schedule: Q01DX001 (ip), vehicle: saline",118 % of control
same,T/C,"dose: 15.0 mg/kg/injection, schedule: Q01DX001 (ip), vehicle: carboxymethylcellulose (CMC)",122 % of control
same,T/C,"dose: 16.0 mg/kg/injection, schedule: Q04DX003 (ip), vehicle: saline",96 % of control
CNc1ccccc1C(=O)N/N=C/c1ccc(OC)cc1,T/C,[6],102 % of control
same,T/C,[7],99 % of control
same,T/C,[8],102 % of control
CCOC(=O)Nc1cc(NCC(O)CN(C)c2ccccc2)c(N)c(NC(=O)OCC)n1 (stereo not given),T/C,[1],87 % of control
same,T/C,"dose: 200.0 mg/kg/injection, schedule: Q01DX001 (ip), vehicle: carboxymethylcellulose (CMC)",87 % of control
same,T/C,"dose: 400.0 mg/kg/injection, schedule: Q01DX001 (ip), vehicle: carboxymethylcellulose (CMC)",92 % of control
Nc1nc(N)nc(-c2ccc(NC(=O)c3ccccc3[N+](=O)[O-])cc2)n1,T/C,"dose: 50.0 mg/kg/injection, schedule: Q04DX003 (ip), vehicle: Klucel (hydroxypropylcellulose) (HPC)",100 % of control
same,T/C,"dose: 100.0 mg/kg/injection, schedule: Q01DX001 (ip), vehicle: Klucel (hydroxypropylcellulose) (HPC)",97 % of control
same,T/C,[9],106 % of control
same,T/C,"dose: 200.0 mg/kg/injection, schedule: Q01DX001 (ip), vehicle: Klucel (hydroxypropylcellulose) (HPC)",95 % of control
same,T/C,[10],103 % of control
O=S(=O)(c1ccc(Cl)cc1)C1CCCC1Cl (stereo not given),T/C,[11],110 % of control
same,T/C,[12],109 % of control
same,T/C,[13],100 % of control
Cc1ccc(OCCOc2ccc(N)cc2)cc1,T/C,"dose: 100.0 mg/kg/injection, schedule: Q04DX003 (ip), vehicle: alcohol",92 % of control
same,T/C,"dose: 200.0 mg/kg/injection, schedule: Q04DX003 (ip), vehicle: alcohol",95 % of control
same,T/C,"dose: 400.0 mg/kg/injection, schedule: Q04DX003 (ip), vehicle: alcohol",90 % of control
COc1ccc(OC)c(NC(=O)NC(C)(C)C)c1,T/C,[14],101 % of control
same,T/C,"dose: 200.0 mg/kg/injection, schedule: Q01DX009 (ip), vehicle: Klucel (hydroxypropylcellulose) (HPC)",103 % of control
same,T/C,"dose: 400.0 mg/kg/injection, schedule: Q01DX009 (ip), vehicle: Klucel (hydroxypropylcellulose) (HPC)",88 % of control
C#CCN(CC#C)c1ccccc1,T/C,"dose: 100.0 mg/kg/injection, schedule: Q04DX002 (ip), vehicle: saline with Tween-80",100 % of control
same,T/C,"dose: 200.0 mg/kg/injection, schedule: Q04DX002 (ip), vehicle: saline with Tween-80",93 % of control
same,T/C,"dose: 400.0 mg/kg/injection, schedule: Q04DX002 (ip), vehicle: saline with Tween-80",97 % of control
CC1(C)OCC(C(O)C(O)C2COC(C)(C)O2)O1 (stereo not given),T/C,[6],96 % of control
same,T/C,[7],104 % of control
same,T/C,[8],101 % of control
OCC1OC(n2cnc3c(SCc4ccccc4)nc(NO)nc32)C(O)C1O (stereo not given),T/C,"dose: 267.0 mg/kg/injection, schedule: Q01DX001 (ip), vehicle: saline with Tween-80",150 % of control
O=C(O)/C=C/C(=O)Nc1cccc(C(F)(F)F)c1,T/C,[3],100 % of control
same,T/C,[4],100 % of control
same,T/C,[5],96 % of control
CC(=O)O[C@H]1CC[C@@]2(C)C(=CC[C@H]3[C@@H]4C[C@@H](N5CC5)[C@H](C(C)=O)[C@@]4(C)CC[C@@H]32)C1,T/C,"dose: 50.0 mg/kg/injection, schedule: Q01DX001 (sc), vehicle: steriod suspending solution",100 % of control
same,T/C,"dose: 100.0 mg/kg/injection, schedule: Q01DX001 (sc), vehicle: steriod suspending solution",102 % of control
same,T/C,"dose: 200.0 mg/kg/injection, schedule: Q01DX001 (sc), vehicle: steriod suspending solution",107 % of control
same,T/C,"dose: 400.0 mg/kg/injection, schedule: Q01DX001 (sc), vehicle: steriod suspending solution",117 % of control
CC(C)=CCN(CC=C(C)C)CCC(C#N)(c1ccc2ccccc2c1)C(C)C (stereo not given),T/C,[15],106 % of control
same,T/C,[14],95 % of control
same,T/C,[9],102 % of control
same,T/C,[10],98 % of control
COc1ccc(OC)c(NC(=O)CCl)c1,T/C,"dose: 25.0 mg/kg/injection, schedule: Q01DX009 (ip), vehicle: Klucel (hydroxypropylcellulose) (HPC)",96 % of control
same,T/C,"dose: 25.0 mg/kg/injection, schedule: Q04DX002 (ip), vehicle: Klucel (hydroxypropylcellulose) (HPC)",96 % of control
same,T/C,[15],98 % of control
same,T/C,[2],93 % of control
same,T/C,[14],89 % of control and 90 % of control
same,T/C,[3],93 % of control and 106 % of control
CC(NC(=O)NCCCl)c1ccsc1 (stereo not given),T/C,"dose: 2.5 mg/kg/injection, schedule: Q01DX009 (ip), vehicle: Klucel (hydroxypropylcellulose) (HPC)",111 % of control
same,T/C,"dose: 5.0 mg/kg/injection, schedule: Q01DX009 (ip), vehicle: Klucel (hydroxypropylcellulose) (HPC)",98 % of control
same,T/C,"dose: 10.0 mg/kg/injection, schedule: Q01DX009 (ip), vehicle: Klucel (hydroxypropylcellulose) (HPC)",94 % of control and 92 % of control
O=Cc1cc(O)ccc1[N+](=O)[O-],T/C,"dose: 100.0 mg/kg/injection, schedule: Q01DX009 (ip), vehicle: saline with Tween-80",98 % of control
same,T/C,[16],103 % of control
same,T/C,"dose: 200.0 mg/kg/injection, schedule: Q01DX009 (ip), vehicle: saline with Tween-80",88 % of control
same,T/C,[17],104 % of control
same,T/C,[18],109 % of control
O=[N+]([O-])c1ccc2c(c1)COCO2,T/C,[16],95 % of control
same,T/C,[17],95 % of control
same,T/C,[18],97 % of control
COc1ccc(C2=NNC(=O)C2(C)Br)cc1 (stereo not given),T/C,[11],105 % of control
same,T/C,[12],91 % of control
same,T/C,[13],100 % of control
